Measured values taken from patent US12023331B2 (priority 2018, dated 2024).
pKi: −log10 of the molar value.

Experiments:
5-HT2 receptor = assay: DOI-induced head twitch model in mice; format: in vivo; settings: compound orally 0.5 hr before DOI
[1] = test system: AMPA-induced currents in rat mPFC; assay: AMPA-induced currents in rat mPFC slices, whole-cell patch clamp; format: cell-based
Protocol: Combined administration of the antipsychotic, olanzapine, and the SSRI, fluoxetine, similarly induces rapid antidepressant activity in humans and animals (Tohen et al., 2010); likewise, combined application of olanzapine and fluoxetine is required to induce AMPA receptor currents in vitro.
In contrast, the antipsychotic drug olanzapine, is found to enhance AMPA-induced currents only in the presence of the SSRI fluoxetine. 3 nM olanzapine alone results in about 100% of the AMPA-induced current of the control, while 100 nM fluoxetine results in about 90% of the AMPA-induced current of the control. However, the combination of 3 nM olanzapine and 100 nM fluoxetine is found to synergistically result in almost 150% of the AMPA-induced current of control. When SCH 23390 (1 μM) is combined with the olanzapine and fluoxetine, however, the AMPA-induced current returns to approximately 100% of the control level.

mTORC1 signaling pathway = assay: Phosphorylation of mTOR pathway proteins in rat PFC; format: in vivo; settings: for mTOR phosphorylation (Serine 2448) / increase in phosphorylation of AKT at thr308 / p70s6K phosphorylation (Threonine 389): rat PFC, 30 mg/kg ketamine or 3 mg/kg Formula A i.p.; for increase in phosphorylation of AKT at thr308: both 1 hour and 24 hours post-administration; for p70s6K phosphorylation (Threonine 389): over 24 hours
[2] = test system: NMDA-induced currents in rat mPFC; assay: NMDA-induced currents in rat mPFC slices, whole-cell patch clamp; format: cell-based
[3] = Clinical studies in patients with acute exacerbated schizophrenia; format: in vivo, human; settings: 60 mg P.O. once daily up to 28 days
From the text: Social avoidance can be a critical and debilitating symptom in patients suffering from anxiety disorders, especially social anxiety disorder, as well as in patients suffering from traumatic anxiety disorders. Social avoidance is often one of the key determinants of whether a person with a severe anxiety disorder is capable of maintaining familial relationships or employment relationships. […] Negative symptoms of schizophrenia can be divided into two categories: emotional experience (e.g., emotional withdrawal, passive social withdrawal, active social avoidance) and emotional expression (e.g., blunted effect, poor rapport, lack of spontaneity, and motor retardation). […] These are the symptoms that are most highly correlated with interpersonal functioning.

Mu opiate receptor = Mu opiate receptor (Homo sapiens (Human), UniProt P35372); assay: biochemical
[4] = 40-minute infusion, total dose 0.5 mg/kg; after 24 hours; cited from earlier work

With `O=C1CN2c3c(cccc3[C@@H]3CN(CCCOc4ccc(F)cc4)CC[C@@H]32)N1` [Example 1, (6bR,10aS)-8-(3-(4-fluorophenoxy)propyl)-6b,7,8,9,10,10a-hexahydro-1H-pyrido[3′,4′:4,5]pyrrolo[1,2,3-de]quinoxalin-2(3H)-one] the “EC50 for reducing DOI-induced head twitches” value (5-HT2 receptor) was 0.44 mg/kg, p.o.
With `CN1CCN2c3c(cccc31)[C@@H]1CN(CCCC(=O)c3ccc(F)cc3)CC[C@@H]12` [Formula A, lumateperone] the “AMPA-induced currents compared to control” value ([1]; Formula A 30 nM, alone and with SCH 23390 (1 μM), rat mPFC) was “Substantially the same results”, the “activation of the mTORC1 signaling pathway in mPFC” value (mTORC1 signaling pathway; adult rats, 1 to 8 mg/kg i.p., 60 min, 90 min or 24 hours) was “rapidly activates the mTORC1 signaling pathway” and the “mTOR phosphorylation (Serine 2448)” value (mTORC1 signaling pathway) was “Neither ketamine nor the Compound of Formula A results in a change”. For the same molecule, the “increase in phosphorylation of AKT at thr308” value (mTORC1 signaling pathway) was ~50%, the “p70s6K phosphorylation (Threonine 389)” value (mTORC1 signaling pathway) was “progressively increases” and the “NMDA-induced currents compared to control” value ([2]; 30 nM) was ~150%. The “NMDA-induced currents compared to control” value ([2]; Formula A 30 nM combined with SCH 23390 (1 μM)) was “about 90 % of control”, the “symptoms of emotional experience compared to placebo” value [3] was “significant and unexpected improvement” and the pKi (Mu opiate receptor) was < 5.00.
For `CNCCC(Oc1ccc(C(F)(F)F)cc1)c1ccccc1` (stereo not shown) [fluoxetine], the “AMPA-induced current of the control” value ([1]; 100 nM fluoxetine) was “about 90%”.
In the case of `CNC1(c2ccccc2Cl)CCCCC1=O` (stereo not shown) [ketamine], the “mTOR phosphorylation (Serine 2448)” value (mTORC1 signaling pathway) was “Neither ketamine nor the Compound of Formula A results in a change”, the “increase in phosphorylation of AKT at thr308” value (mTORC1 signaling pathway) was ~50% and the “p70s6K phosphorylation (Threonine 389)” value (mTORC1 signaling pathway) was “transiently increase”. For the same molecule, the “ratings on the Hamilton Depression Rating Scale (HDRS) compared to placebo” value [4] was “significantly improved ratings”.
With `Cc1cc2c(s1)Nc1ccccc1N=C2N1CCN(C)CC1` [olanzapine] the “AMPA-induced current of the control” value ([1]; 3 nM olanzapine alone) was “about 100%”.
